Results taken from article PMC12298351, “Novel 3,19-(N-Phenyl-3-(4-fluorophenyl)-pyrazole) Acetal of Andrographolide Promotes Cell Cycle Arrest and Apoptosis in MDA-MB-231 Breast Cancer Cells” (Pharmaceuticals, 2025).

Tests used:
OVCAR-5 = conditions: OVCAR-5, Ovarian
M14 = type: cell-based; conditions: M14, Melanoma
SK-MEL-5 = conditions: SK-MEL-5, Melanoma
HCC-2998 = conditions: HCC-2998, Colon
MALME-3M = conditions: Melanoma
SK-MEL-2 = conditions: SK-MEL-2, Melanoma
KM12 = conditions: KM12, Colon
HT29 = conditions: HT29, Colon
CAKI-1 = conditions: CAKI-1, Renal
DU-145 = conditions: DU-145, Prostate
SW-620 = conditions: SW-620, Colon
IGROV1 = conditions: IGROV1, Ovarian
SK-MEL-28 = conditions: SK-MEL-28, Melanoma
MOLT-4 = conditions: MOLT-4, Leukemia
BT-549 = type: cell-based; conditions: BT-549, Breast
[1] = DPPH radical scavenging assay; conditions: 25 µM test compound, 0.1 mM DPPH, acetonitrile, 30 min
Procedure, shortened: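 Compounds at 25 µM in acetonitrile mixed 1:2 with 0.1 mM DPPH in acetonitrile, kept 30 min in the dark at room temperature. Absorbance read at 517 nm; % scavenging = (Ac − As)/Ac × 100, Ac being DPPH blank. Ascorbic acid positive control.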

SF-268 = conditions: SF-268, CNS
MCF7 = conditions: MCF7, Breast
MDA-MB-468 = conditions: MDA-MB-468, Breast
[2] = read-out: 50% lethal concentration (LC50)
[3] = read-out: 50% lethal concentration (LC50), Leukemia

C=C1CCC2C3(C)COC(c4cn(-c5ccccc5)nc4-c4cccc(Br)c4)OC3CCC2(C)C1CC=C1C(=O)OCC1O (centres unmarked) [1e]
GI50 (OVCAR-5): 1.85 µM
Total growth inhibition (TGI) (OVCAR-5): 4.35 µM
CC50 (OVCAR-5; [2]): 47.7 µM
GI50 (M14): 1.86 µM
Total growth inhibition (TGI) (M14): 4.12 µM
GI50 (ACHN; Renal): 1.61 µM
Total growth inhibition (TGI) (ACHN; Renal): 16.8 µM
CC50 (ACHN; read-out: 50% lethal concentration (LC50), Renal): 5.51 µM
Total growth inhibition (TGI) (HOP-62; HOP-62, Non-Small Cell Lung): 4.94 µM
GI50 (HOP-62; HOP-62, Non-Small-Cell Lung): 2.08 µM
CC50 (HOP-62; read-out: 50% lethal concentration (LC50), HOP-62, Non-Small Cell Lung): > 100 µM
GI50 (T-47D; Breast): 2.29 µM
Total growth inhibition (TGI) (T-47D; Breast): 7.26 µM
CC50 (T-47D; read-out: 50% lethal concentration (LC50), Breast): > 100 µM
GI50 (SK-MEL-5): 1.54 µM
Total growth inhibition (TGI) (SK-MEL-5): 2.88 µM
CC50 (SK-MEL-5; [2]): 5.39 µM
GI50 (HCC-2998): 1.72 µM
Total growth inhibition (TGI) (HCC-2998): 3.33 µM
GI50 (HL-60(TB); Leukemia): 1.17 µM
Total growth inhibition (TGI) (HL-60(TB); Leukemia): 5.17 µM
CC50 (HL-60(TB); [3]): > 100 µM
GI50 (MALME-3M): 1.87 µM
Total growth inhibition (TGI) (MALME-3M): 3.45 µM
GI50 (SK-MEL-2): 1.78 µM
Total growth inhibition (TGI) (SK-MEL-2): 3.38 µM
Total growth inhibition (TGI) (A549/ATCC; Non-Small Cell Lung): 19.9 µM
GI50 (A549/ATCC; Non-Small-Cell Lung): 3.07 µM
CC50 (A549/ATCC; read-out: 50% lethal concentration (LC50), Non-Small Cell Lung): > 100 µM
Total growth inhibition (TGI) (NCI-H23; NCI-H23, Non-Small Cell Lung): 4.07 µM
GI50 (NCI-H23; NCI-H23, Non-Small-Cell Lung): 1.9 µM
CC50 (NCI-H23; read-out: 50% lethal concentration (LC50), NCI-H23, Non-Small Cell Lung): 8.74 µM
GI50 (KM12): 1.83 µM
Total growth inhibition (TGI) (KM12): 3.58 µM
GI50 (SR; Leukemia): 1.77 µM
CC50 (SR; [3]): > 100 µM
GI50 (HT29): 1.66 µM
Total growth inhibition (TGI) (HT29): 3.46 µM
CC50 (HT29; [2]): 7.23 µM
GI50 (CAKI-1): 1.42 µM
Total growth inhibition (TGI) (CAKI-1): 2.98 µM
CC50 (CAKI-1; [2]): 6.04 µM
GI50 (DU-145): 2.12 µM
Total growth inhibition (TGI) (DU-145): 4.57 µM
CC50 (DU-145; [2]): 9.82 µM
GI50 (SW-620): 1.72 µM
Total growth inhibition (TGI) (SW-620): 3.64 µM
GI50 (IGROV1): 2.2 µM
Total growth inhibition (TGI) (IGROV1): 4.83 µM
CC50 (IGROV1; [2]): > 100 µM
GI50 (SK-MEL-28): 1.73 µM
Total growth inhibition (TGI) (SK-MEL-28): 3.28 µM
CC50 (SK-MEL-28; [2]): 6.2 µM
GI50 (LOX IMVI; Melanoma): 1.64 µM
Total growth inhibition (TGI) (LOX IMVI; Melanoma): 3.03 µM
CC50 (LOX IMVI; read-out: 50% lethal concentration (LC50), Melanoma): 5.59 µM
GI50 (MOLT-4): 0.91 µM
Total growth inhibition (TGI) (MOLT-4): 4.24 µM
CC50 (MOLT-4; [2]): > 100 µM
GI50 (BT-549): 1.46 µM
Total growth inhibition (TGI) (BT-549): 2.99 µM
% DPPH radical scavenging activity [1]: 58.75%
GI50 (SF-268): 2.02 µM
Total growth inhibition (TGI) (SF-268): 4.26 µM
CC50 (SF-268; [2]): 8.98 µM
GI50 (MCF7): 1.77 µM
Total growth inhibition (TGI) (MCF7): > 100 µM
CC50 (MCF7; [2]): > 100 µM
GI50 (MDA-MB-231; MDA-MB-231, Breast): 1.68 µM
Total growth inhibition (TGI) (MDA-MB-231; MDA-MB-231/ATCC, Breast): 3.23 µM
CC50 (MDA-MB-231; read-out: 50% lethal concentration (LC50), MDA-MB-231/ATCC, Breast): 6.23 µM
GI50 (MDA-MB-468): 1.82 µM
Total growth inhibition (TGI) (MDA-MB-468): 3.41 µM
CC50 (MDA-MB-468; [2]): 6.37 µM
